Here are results for two compounds from publication PMC4774911, “Biochemical Screening of Five Protein Kinases from Plasmodium falciparum against 14,000 Cell-Active Compounds” (PLoS ONE, 2016).

One experiment has as its system 3D7 PFLDH. The arrangement: method as in F.J. Gamo et al., Nature 2010; concentration or dose not given beside the values. As to conditions: downloaded from ChEMBL, ref F.J. Gamo et al., Nature 2010; cited from earlier work.
Experiment [1] has as its target T1, Plasmodium falciparum calcium-dependent protein kinase 4 (CDPK4) (Plasmodium falciparum, UniProt Q8IBS5).
T1 construct: 6-Histidine (N); made in house
T1 sequence (Q8IBS5 1-528): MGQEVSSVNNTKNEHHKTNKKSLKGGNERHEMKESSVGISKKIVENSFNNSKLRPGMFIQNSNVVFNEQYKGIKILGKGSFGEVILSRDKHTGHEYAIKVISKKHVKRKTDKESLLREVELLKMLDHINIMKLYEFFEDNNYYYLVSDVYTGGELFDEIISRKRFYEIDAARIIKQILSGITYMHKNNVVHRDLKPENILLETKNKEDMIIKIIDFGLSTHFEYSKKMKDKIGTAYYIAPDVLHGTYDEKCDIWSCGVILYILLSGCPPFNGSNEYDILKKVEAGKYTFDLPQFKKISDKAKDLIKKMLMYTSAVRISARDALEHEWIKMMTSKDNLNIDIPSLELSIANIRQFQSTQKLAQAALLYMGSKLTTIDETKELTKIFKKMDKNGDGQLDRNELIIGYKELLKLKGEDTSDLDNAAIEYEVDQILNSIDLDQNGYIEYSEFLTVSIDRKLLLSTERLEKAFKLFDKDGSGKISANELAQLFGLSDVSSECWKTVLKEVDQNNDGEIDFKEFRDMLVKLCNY
Description: CDPK4 Kinase-Glo ATP-consumption screen and dose-response. The experiment is classed as biochemical. The note with it: hits below 1 uM. The gist of the method: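 ATP consumption by recombinant P. falciparum CDPK4 or CDPK1 measured as residual ATP by Kinase-Glo luminescence, with 40 μM Syntide-2 substrate and 90 min incubation stopped with 5 mM EGTA. Single-point screen at 1 μM final, followed by dose-response; no-substrate wells as negative control.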

Experiment [2] concerns the target ABL1 (Homo sapiens, UniProt P00519).
The subject of another experiment is DD2. The arrangement: method as in F.J. Gamo et al., Nature 2010. The note with it: downloaded from ChEMBL, ref F.J. Gamo et al., Nature 2010; cited from earlier work.
In the next experiment the target is CDK5 (Homo sapiens, UniProt Q00535). In words: biochemical. As to conditions: read-out: KDapp. The arrangement: endogenous in cells; host or cells: K562 cell extract; species or system K562 (extract); replicate k of n = 2 (each experiment ID is one independent experiment; two experiment IDs per compound).
In another experiment the target is T2, PHKG2 (Homo sapiens, UniProt P15735).
T2 sequence (P15735 1-406): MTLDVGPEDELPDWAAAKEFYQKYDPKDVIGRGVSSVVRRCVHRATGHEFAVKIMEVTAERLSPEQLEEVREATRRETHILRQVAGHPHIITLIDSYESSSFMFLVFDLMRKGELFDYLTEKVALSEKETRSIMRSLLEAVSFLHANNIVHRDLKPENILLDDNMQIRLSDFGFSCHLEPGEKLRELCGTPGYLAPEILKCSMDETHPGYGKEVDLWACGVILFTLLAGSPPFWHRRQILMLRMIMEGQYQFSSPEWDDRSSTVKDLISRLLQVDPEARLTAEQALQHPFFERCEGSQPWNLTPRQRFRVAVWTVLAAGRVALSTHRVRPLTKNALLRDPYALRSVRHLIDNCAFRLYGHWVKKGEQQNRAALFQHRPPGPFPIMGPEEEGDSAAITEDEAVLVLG
Description: biochemical. The arrangement: endogenous in cells; host or cells: K562 cell extract; species or system K562 (extract); replicate k of n = 2 (each experiment ID is one independent experiment; two experiment IDs per compound). As to conditions: read-out: KDapp.

For another experiment, the target named is RPS6KA1 (Homo sapiens, UniProt Q15418). In words: biochemical. The arrangement: endogenous in cells; host or cells: K562 cell extract; species or system K562 (extract); replicate k of n = 2 (each experiment ID is one independent experiment; two experiment IDs per compound). The note with it: read-out: KDapp.
In experiment [3] the target is ABL1. In words: biochemical. The arrangement: species or system human, K562 (extract); replicate k of n = 2 (each experiment ID is one independent experiment; two experiment IDs per compound). The note with it: human; read-out: KDapp.
A further experiment addresses LOC100128443. Description: biochemical. The arrangement: species or system human, K562 (extract); replicate k of n = 2 (each experiment ID is one independent experiment; two experiment IDs per compound). The note with it: human; read-out: KDapp.
A further experiment addresses T3, TGFBR1 (Homo sapiens, UniProt P36897).
T3 sequence (P36897 1-503): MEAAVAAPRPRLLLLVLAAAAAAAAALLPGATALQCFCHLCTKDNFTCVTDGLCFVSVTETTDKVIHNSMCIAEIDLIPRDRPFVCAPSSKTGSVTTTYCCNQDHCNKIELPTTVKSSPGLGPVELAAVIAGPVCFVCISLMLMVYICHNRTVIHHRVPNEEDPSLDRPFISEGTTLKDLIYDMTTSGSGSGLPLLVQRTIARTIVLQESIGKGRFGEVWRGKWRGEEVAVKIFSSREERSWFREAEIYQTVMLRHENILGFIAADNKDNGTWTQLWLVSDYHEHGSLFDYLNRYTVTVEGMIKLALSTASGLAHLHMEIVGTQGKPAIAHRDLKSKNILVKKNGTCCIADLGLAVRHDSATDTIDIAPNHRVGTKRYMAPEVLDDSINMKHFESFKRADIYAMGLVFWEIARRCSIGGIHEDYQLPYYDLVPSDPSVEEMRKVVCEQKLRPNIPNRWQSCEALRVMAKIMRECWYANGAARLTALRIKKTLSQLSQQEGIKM
Description: biochemical. The arrangement: endogenous in cells; host or cells: K562 cell extract; species or system K562 (extract); replicate k of n = 2 (each experiment ID is one independent experiment; two experiment IDs per compound). The note with it: read-out: KDapp.

“And” between values parts separate entries of the source, which are not always exact repeats. Identical values can stand only once.

CDK5, sequence (Q00535 whole entry): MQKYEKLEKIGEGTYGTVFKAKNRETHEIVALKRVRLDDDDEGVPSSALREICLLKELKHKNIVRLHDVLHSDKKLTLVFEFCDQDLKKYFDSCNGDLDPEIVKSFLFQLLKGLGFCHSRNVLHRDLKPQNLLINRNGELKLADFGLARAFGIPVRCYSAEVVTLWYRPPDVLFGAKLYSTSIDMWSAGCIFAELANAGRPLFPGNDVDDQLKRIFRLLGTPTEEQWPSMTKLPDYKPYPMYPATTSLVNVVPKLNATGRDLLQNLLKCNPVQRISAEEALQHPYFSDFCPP
RPS6KA1, sequence (Q15418 whole entry): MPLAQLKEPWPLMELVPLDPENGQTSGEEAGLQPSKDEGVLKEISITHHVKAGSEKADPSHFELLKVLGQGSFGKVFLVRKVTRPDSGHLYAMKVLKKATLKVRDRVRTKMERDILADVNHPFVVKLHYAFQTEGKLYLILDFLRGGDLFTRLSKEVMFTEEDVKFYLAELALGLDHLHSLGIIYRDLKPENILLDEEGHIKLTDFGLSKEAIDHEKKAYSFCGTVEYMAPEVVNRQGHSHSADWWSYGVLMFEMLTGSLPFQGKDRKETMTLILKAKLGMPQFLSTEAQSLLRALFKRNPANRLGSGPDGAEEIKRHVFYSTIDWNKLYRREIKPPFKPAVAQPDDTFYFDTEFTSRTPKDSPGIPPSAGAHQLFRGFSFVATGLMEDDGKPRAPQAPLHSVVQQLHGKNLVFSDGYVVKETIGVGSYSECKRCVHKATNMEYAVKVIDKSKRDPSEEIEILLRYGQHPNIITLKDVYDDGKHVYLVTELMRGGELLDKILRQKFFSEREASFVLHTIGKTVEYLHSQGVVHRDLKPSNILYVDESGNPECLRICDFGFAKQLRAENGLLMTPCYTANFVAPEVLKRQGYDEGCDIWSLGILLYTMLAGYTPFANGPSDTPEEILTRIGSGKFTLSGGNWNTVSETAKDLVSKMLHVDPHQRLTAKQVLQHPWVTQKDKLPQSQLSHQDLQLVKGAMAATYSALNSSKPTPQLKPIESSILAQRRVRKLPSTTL
ABL1, sequence (P00519 whole entry): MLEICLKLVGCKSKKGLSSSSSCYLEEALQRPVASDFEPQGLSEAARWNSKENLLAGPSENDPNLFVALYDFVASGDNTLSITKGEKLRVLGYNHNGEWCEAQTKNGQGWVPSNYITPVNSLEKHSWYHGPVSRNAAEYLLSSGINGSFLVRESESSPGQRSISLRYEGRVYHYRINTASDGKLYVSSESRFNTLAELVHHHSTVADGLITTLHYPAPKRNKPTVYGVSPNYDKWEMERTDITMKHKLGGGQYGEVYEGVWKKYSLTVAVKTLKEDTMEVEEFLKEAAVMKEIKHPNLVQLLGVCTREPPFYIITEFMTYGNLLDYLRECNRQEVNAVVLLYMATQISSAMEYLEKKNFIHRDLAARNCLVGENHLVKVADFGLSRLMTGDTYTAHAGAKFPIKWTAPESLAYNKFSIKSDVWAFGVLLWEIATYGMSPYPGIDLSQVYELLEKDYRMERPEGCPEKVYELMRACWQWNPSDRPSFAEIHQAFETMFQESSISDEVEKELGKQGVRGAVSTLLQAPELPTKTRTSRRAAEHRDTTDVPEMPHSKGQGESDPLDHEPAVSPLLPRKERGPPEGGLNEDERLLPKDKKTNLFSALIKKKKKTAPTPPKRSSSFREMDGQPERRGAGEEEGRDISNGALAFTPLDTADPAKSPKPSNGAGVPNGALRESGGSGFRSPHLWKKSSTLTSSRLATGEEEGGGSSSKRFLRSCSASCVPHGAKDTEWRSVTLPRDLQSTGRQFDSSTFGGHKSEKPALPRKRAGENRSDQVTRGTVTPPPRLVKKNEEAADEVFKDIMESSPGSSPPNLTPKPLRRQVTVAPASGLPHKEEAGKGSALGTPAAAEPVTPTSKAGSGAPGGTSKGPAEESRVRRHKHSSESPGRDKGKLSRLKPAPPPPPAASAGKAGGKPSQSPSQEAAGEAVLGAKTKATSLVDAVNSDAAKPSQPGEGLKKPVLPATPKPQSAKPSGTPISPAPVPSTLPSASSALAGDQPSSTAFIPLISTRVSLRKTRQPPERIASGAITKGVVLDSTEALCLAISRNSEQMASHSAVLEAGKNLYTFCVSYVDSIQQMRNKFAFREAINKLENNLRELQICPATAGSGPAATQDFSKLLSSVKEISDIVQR
ABL1 (Homo sapiens, UniProt P00519), sequence (P00519 whole entry): as above

For `CN1CCN(c2ccc(Nc3ncc(C#N)c(Nc4ccccc4C(N)=O)n3)cc2)CC1.Cl` [TCMDC-134116], the PCT_INHIB_3D7_PFLDH in the experiment on 3D7 PFLDH was 0%. Also, the IC50 (in general, the point on the concentration scale where inhibition reaches its midpoint) in [1] was found to be 188 nM; against ABL1 [2] it was 130 nM. For the same compound, in the experiment on DD2, the PCT_INHB_DD2 is 93%. Moreover, the Kd is 40.5 nM and 66.5 nM on CDK5; 2250 nM on PHKG2; 96 nM on RPS6KA1; 58.6 nM at ABL1 [3]; 199 nM on LOC100128443.

With `Cl.NCC1(c2nc(-c3ccc(Cl)c(O)c3)c(-c3ccncc3)[nH]2)CCCCC1` [TCMDC-141154], the Kd on TGFBR1 is 59.6 nM and 87.9 nM.
